Reference: ChEMBL document CHEMBL3352551, “Synthesis and biological evaluation of novel allosteric enhancers of the A1 adenosine receptor based on 2-amino-3-(4'-chlorobenzoyl)-4-substituted-5-arylethynyl thiophene” (J Med Chem, 2014)
Active and inactive are the calls of the source. The calls are words filed in the database; no cut-off is given here.

Tests used:
[1] = molecular target: T1, Adenosine receptor A1 (Homo sapiens) (UniProt P30542); assay: Allosteric enhancer activity at human adenosine A1 receptor expressed in CHO cell membranes assessed as shift in [3H]CCPA Kd level at 10 uM by saturation binding assay
T1 sequence (whole entry): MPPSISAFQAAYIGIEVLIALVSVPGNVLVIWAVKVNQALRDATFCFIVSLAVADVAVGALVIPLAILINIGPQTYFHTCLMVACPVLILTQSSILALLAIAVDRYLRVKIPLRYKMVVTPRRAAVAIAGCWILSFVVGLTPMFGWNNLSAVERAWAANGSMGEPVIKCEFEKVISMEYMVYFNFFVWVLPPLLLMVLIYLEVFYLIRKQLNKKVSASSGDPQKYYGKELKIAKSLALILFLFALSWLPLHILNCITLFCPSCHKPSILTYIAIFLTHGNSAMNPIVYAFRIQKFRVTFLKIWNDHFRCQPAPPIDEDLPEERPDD

[2] = molecular target: T1, Adenosine receptor A1 (Homo sapiens); assay: Allosteric enhancer activity at human adenosine A1 receptor expressed in CHO cell membranes assessed as shift in [3H]CCPA Bmax level at 10 uM by saturation binding assay
[3] = molecular target: T1, Adenosine receptor A1 (Homo sapiens); assay: Allosteric enhancer activity at human adenosine A1 receptor expressed in CHO cell membranes assessed as [3H]NECA dissociation rate at 1 uM (reference value: 0.0159 +/- 0.0004 /min); assay type: cell-based
[4] = molecular target: T1, Adenosine receptor A1 (Homo sapiens); assay: Allosteric enhancer activity at human adenosine A1 receptor expressed in CHO cells assessed as inhibition of forskolin-induced cAMP production at 100 nM in presence of 1 pM CCPA; assay type: functional, cell-based
[5] = molecular target: Adenosine receptor A2a (Homo sapiens) (UniProt P29274); assay: Displacement of [3H]ZM241385 from human adenosine A2A receptor expressed in CHO cell membranes at 10 uM
Chain of Adenosine receptor A2a (Homo sapiens) (P29274 whole entry): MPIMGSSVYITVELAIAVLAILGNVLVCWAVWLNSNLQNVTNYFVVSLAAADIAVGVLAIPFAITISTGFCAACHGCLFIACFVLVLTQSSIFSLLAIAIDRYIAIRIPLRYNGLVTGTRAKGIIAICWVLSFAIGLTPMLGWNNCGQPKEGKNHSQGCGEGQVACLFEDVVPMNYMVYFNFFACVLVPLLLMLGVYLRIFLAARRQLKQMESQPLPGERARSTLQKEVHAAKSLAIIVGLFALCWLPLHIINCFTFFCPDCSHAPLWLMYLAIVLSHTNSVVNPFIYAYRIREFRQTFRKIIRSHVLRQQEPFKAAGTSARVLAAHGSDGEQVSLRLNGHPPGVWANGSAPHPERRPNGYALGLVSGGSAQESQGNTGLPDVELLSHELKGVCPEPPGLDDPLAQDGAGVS

[6] = molecular target: T1, Adenosine receptor A1 (Homo sapiens); assay: Allosteric enhancer activity at human adenosine A1 receptor expressed in CHO cell membranes assessed as shift in CCPA binding Ki level at 10 uM by [3H]DPCPX competition binding assay
[7] = molecular target: T1, Adenosine receptor A1 (Homo sapiens); assay: Allosteric enhancer activity at human adenosine A1 receptor expressed in CHO cell membranes assessed as slowing of [3H]NECA dissociation rate level at 1 uM; assay type: cell-based
[8] = molecular target: T2, Adenosine receptor A3 (Homo sapiens) (UniProt P0DMS8); assay: Displacement of [3H]MRE-3008-F20 from human adenosine 3 receptor expressed in CHO cell membranes at 10 uM
T2 sequence (whole entry): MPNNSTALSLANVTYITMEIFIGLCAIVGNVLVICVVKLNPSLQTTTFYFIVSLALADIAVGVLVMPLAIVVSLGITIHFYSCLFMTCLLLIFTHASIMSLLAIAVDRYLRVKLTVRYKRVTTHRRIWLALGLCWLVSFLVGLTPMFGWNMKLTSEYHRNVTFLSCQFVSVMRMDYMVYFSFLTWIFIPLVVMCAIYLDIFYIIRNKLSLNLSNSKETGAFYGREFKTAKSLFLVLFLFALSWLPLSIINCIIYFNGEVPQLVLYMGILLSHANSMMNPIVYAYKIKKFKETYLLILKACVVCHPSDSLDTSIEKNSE

[9] = molecular target: T1, Adenosine receptor A1 (Homo sapiens); assay: Allosteric enhancer activity at human adenosine A1 receptor expressed in CHO cell membranes assessed as [3H]NECA association rate at 1 uM (reference value: 0.0183 +/- 0.0008 /nM/min); assay type: cell-based
[10] = molecular target: T1, Adenosine receptor A1 (Homo sapiens); assay: Allosteric enhancer activity at human adenosine A1 receptor expressed in CHO cells assessed as inhibition of forskolin-induced cAMP production at 10 uM; assay type: functional, cell-based
[11] = molecular target: T1, Adenosine receptor A1 (Homo sapiens); assay: Allosteric enhancer activity at human adenosine A1 receptor expressed in CHO cell membranes assessed as shift in [3H}NECA binding affinity level at 1 uM
[12] = molecular target: T1, Adenosine receptor A1 (Homo sapiens); assay: Displacement of [3H]DPCPX from human adenosine A1 receptor expressed in CHO cell membranes at 10 uM
Adenosine receptor A1 = molecular target: T3, Adenosine receptor A1 (Rattus norvegicus, UniProt P25099); assay: Displacement of [3H]DPCPX from adenosine A1 receptor in rat membranes; assay type: cell membranes
T3 sequence (P25099 whole entry): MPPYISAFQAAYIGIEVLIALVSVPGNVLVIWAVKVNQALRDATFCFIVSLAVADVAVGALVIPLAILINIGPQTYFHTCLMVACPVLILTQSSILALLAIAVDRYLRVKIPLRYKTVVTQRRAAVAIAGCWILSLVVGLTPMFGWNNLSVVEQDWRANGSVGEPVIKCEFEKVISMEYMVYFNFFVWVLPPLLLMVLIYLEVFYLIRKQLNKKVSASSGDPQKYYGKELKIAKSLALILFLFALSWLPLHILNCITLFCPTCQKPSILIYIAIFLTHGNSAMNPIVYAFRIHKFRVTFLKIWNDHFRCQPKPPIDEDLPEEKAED

Activity [1] | fold change (FC) [2] | K [3] | inhibition [4] | inhibition [5] | fold change (FC) [6] | fold change (FC) [7] | inhibition [8] | K [9] | inhibition [10] | fold change (FC) [11] | inhibition [12] | Ki (Adenosine receptor A1) | Compound
inactive | 9.5 | 0.0076 min⁻¹ | 77% | < 15% | 9.9 | 2.1 | < 15% | 273000 M⁻¹ s⁻¹ | 75% | 1.9 | < 15% |  | CC(C)(C)Cc1c(C#Cc2ccccc2)sc(N)c1C(=O)c1ccc(Cl)cc1
inactive | 1.3 | 0.0143 min⁻¹ |  | inactive | 1.3 |  |  | 318000 M⁻¹ s⁻¹ |  | 1.2 | inactive | 11 µM | Cc1sc(N)c(C(=O)c2cccc(C(F)(F)F)c2)c1C
